Test results taken from ChEMBL document CHEMBL5727873, “Heterocyclic compounds and uses thereof” (2020).

Target: T1, Histone deacetylase 8 (Homo sapiens, UniProt Q9BY41)
T1 sequence (Q9BY41 whole entry): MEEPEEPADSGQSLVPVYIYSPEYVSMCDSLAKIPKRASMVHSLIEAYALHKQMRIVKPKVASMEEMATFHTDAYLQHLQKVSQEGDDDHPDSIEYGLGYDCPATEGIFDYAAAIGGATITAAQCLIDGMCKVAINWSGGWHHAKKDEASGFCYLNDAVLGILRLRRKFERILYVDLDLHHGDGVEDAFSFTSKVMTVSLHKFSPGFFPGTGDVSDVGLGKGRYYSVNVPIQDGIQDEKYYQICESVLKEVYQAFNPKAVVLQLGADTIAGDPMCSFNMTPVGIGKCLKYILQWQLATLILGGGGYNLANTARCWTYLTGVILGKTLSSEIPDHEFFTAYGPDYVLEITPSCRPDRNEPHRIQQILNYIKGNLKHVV
Test: Enzymatic Assay: HDAC-Glo I/II Assay Kit was purchased from Promega Corporation (Madison, Wis.), including the following components: HDAC-Glo I/II Buffer (25 mM Tris buffer, pH 8.0, supplemented with 137 mM: NaCl, 2.7 mM KCl, 1% v/v Triton X-100 and 1 mM: MgCl2), luminogenic substrates Boc-GAK(Ac)-aminoluciferin (HDAC-Glo I/II substrate), proprietary developer reagent (containing trypsin). Assay:The HDAC8 reaction was performed at room temperature in white 384-well polystyrene, flat-bottom microtiter plate (Greiner Bio-one, Monroe, N.C.) in a final volume of 20 μL. Test compounds were first diluted serially in DMSO and 100 nL were transferred to the plate wells by Echo 550 (Labcyte, Sunnyvale, Calif.) before the addition of other reaction components. The final concentration of DMSO in the assay was 0.5%. The HDAC-Glo I/II assay reagent was prepared by rehydration of lyophilized HDAC-Glo I/II substrate in 10 mL. HDAC-Glo I/II assay buffer followed with the addition of 10 μL of developer reagent. 10 uL of 3 nM HDAC8 in the HDAC-Glo I/II assay buffer were first dispensed into the microliter plate containing the compounds and incubated at room temperature for 30 min. The reactions were initiated with the addition of 10 uL HDAC-Glo I/II assay reagent with Multidrop.

IC50 | SMILES
< 0.05 µM | Cn1nc(C(Cc2ccccc2)C(=O)NO)c2ccc(Cl)cc21 (configuration not stated)
> 0.5 µM | CC1CCN(c2cccc3nn(C(Cc4ccccc4)C(=O)NO)cc23)CC1 (configuration not stated)
